The target of this assay is T1, PDE10 (PDE10A) (Bos taurus, UniProt A0A3Q1MHJ4).
T1 construct: isolated and prepared from bovine corpus striatum; from tissue; host or cells: bovine corpus striatum
T1 sequence (A0A3Q1MHJ4 1-1068): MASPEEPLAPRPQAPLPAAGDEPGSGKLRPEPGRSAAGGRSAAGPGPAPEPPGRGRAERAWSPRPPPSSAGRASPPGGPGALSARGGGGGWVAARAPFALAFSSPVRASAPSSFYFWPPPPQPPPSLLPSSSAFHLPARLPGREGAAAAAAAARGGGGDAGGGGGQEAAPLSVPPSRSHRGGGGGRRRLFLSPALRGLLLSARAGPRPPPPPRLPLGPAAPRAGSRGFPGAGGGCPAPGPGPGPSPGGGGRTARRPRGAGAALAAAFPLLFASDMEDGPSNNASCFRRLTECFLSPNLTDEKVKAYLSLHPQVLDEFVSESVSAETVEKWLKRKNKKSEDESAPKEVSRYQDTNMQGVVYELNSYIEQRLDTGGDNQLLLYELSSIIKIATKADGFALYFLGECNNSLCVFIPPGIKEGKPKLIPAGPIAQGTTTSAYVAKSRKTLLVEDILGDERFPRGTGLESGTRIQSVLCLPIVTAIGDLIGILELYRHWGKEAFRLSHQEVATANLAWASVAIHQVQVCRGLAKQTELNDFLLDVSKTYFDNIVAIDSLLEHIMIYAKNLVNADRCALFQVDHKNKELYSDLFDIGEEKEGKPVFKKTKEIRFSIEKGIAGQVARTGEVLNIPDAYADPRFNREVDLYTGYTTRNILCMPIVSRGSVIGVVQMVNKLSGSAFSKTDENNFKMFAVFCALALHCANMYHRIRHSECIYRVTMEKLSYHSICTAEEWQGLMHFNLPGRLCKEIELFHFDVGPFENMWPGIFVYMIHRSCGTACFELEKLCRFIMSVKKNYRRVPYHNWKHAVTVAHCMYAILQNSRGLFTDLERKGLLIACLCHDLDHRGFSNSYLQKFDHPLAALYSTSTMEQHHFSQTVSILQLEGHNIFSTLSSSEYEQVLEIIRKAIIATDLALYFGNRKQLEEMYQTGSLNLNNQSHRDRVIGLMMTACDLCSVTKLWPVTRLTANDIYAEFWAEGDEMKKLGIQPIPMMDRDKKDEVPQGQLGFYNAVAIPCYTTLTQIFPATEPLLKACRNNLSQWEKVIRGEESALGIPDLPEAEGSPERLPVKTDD
The assay can be described thus: Measurement of PDE10 inhibitory activity (radiolabeled nucleotide PDE assay). Type of assay: biochemical. As to conditions: PDE10A from bovine corpus striatum; [3H]cAMP 7 nM final; room temperature 90 min. The protocol:
(1) The enzyme PDE10 (PDE10A) was isolated and prepared from bovine corpus striatum, according to the methods described in references Fujishige et al., Eur. J. Biochem., vol. […] The enzyme solution obtained was used for a PDE assay.
Specifically, the measurements of the inhibitory activities were carried out in the following method.
(Method) The test compounds were dissolved in dimethyl sulfoxide (DMSO). […] The final concentration of cAMP in the reaction mixtures was 7 nM. The reaction mixtures were incubated at room temperature for 90 min under dark conditions. After incubation, the reaction was stopped by adding 100 μL of methanol and resultant solutions were applied to filter plate containing Dowex (1×8 200-400) and centrifuged. 50 μL of the eluate together with wash eluate with additional 100 μL methanol was collected in another plate and the radioactivity was measured with 250 μL of scintillant.
(2) The compounds in the Examples below were tested for PDE inhibition using the Method described above.

Structures can show the parent of a compound that is named as a salt.

Turning to `Cc1nc2ccc(OC(F)(F)F)cc2nc1/C=C/c1nc(N[C@H]2CC[C@H](O)CC2)cc(N2CCCC2)n1` [Example 1.084, trans-4-[(2-{(E)-2-[3-methyl-7-(trifluoromethoxy)quinoxalin-2-yl]vinyl}-6-pyrrolidin-1-ylpyrimidin-4-yl)amino]cyclohexanol], the IC50 – broadly, the concentration that inhibits the measured activity by half – is 0.011 nM.
Take `Cc1nc2ccccc2nc1/C=C/c1nc(N[C@H]2CC[C@](C)(O)CC2)cc(N2CCCC2)n1` [Example 1.020, trans-1-methyl-4-({2-[(E)-2-(3-methylquinoxalin-2-yl)vinyl]-6-pyrrolidin-1-ylpyrimidin-4-yl}amino)cyclohexanol]: half-maximal inhibition (IC50) required 0.073 nM.
In the case of `Cc1cc2nc(C)c(/C=C/c3nc(N[C@@H]4CCOC4)cc(N4CCCC4)n3)nc2cc1C` [Example 1.041, 6-pyrrolidin-1-yl-N-[(3R)-tetrahydrofuran-3-yl]-2-[(E)-2-(3,6,7-trimethylquinoxalin-2-yl)vinyl]pyrimidin-4-amine], it took 0.66 nM to reach half-maximal inhibition (IC50).
Molecule `Cc1ccc2nc(C)c(/C=C/c3nc(N[C@H]4CC[C@](C)(O)CC4)cc(N4CCCC4)n3)nc2c1` [Example 1.064, trans-4-({2-[(E)-2-(3,7-dimethylquinoxalin-2-yl)vinyl]-6-pyrrolidin-1-ylpyrimidin-4-yl}amino)-1-methylcyclohexanol] yielded an IC50 of 0.048 nM.
`COCCNc1cc(N2CCCC2)nc(/C=C/c2nc3ccccc3nc2N(C)C)n1` [Example 1.003, 3-((E)-2-{4-[(2-methoxyethyl)amino]-6-pyrrolidin-1-ylpyrimidin-2-yl}vinyl)-N,N-dimethylquinoxalin-2-amine] returned an IC50 of 0.6 nM.
Turning to `Cc1cc2ccccc2nc1/C=C/c1nc(NC2CCOCC2)cc(N2CCCC2)n1` [Example 1.090, 2-[(E)-2-(3-methylquinolin-2-yl)vinyl]-6-pyrrolidin-1-yl-N-(tetrahydro-2H-pyran-4-yl)pyrimidin-4-amine], the IC50 is 0.36 nM.
Turning to `CN(c1nc2ccccc2nc1/C=C/c1nc(NC2CCOCC2)cc(N2CCCC2)n1)C1CC1` [Example 1.010, N-cyclopropyl-N-methyl-3-{(E)-2-[4-pyrrolidin-1-yl-6-(tetrahydro-2H-pyran-4-ylamino)pyrimidin-2-yl]vinyl}quinoxalin-2-amine], half-maximal inhibition (IC50) was put at 0.48 nM. This IC50 and that of the molecule before are within 1.5-fold of each other.
As for `Cc1nc2ccc(F)cc2nc1/C=C/c1nc(NC2CCOCC2)cc(N2CCCC2)n1` [Example 1.050, 2-[(E)-2-(7-fluoro-3-methylquinoxalin-2-yl)vinyl]-6-pyrrolidin-1-yl-N-(tetrahydro-2H-pyran-4-yl)pyrimidin-4-amine hydrochloride], the figure is 0.14 nM.
The molecule `CN(C)c1nc2ccccc2nc1/C=C/c1nc(N[C@@H]2CCS(=O)(=O)C2)cc(N2CCCC2)n1` [Example 1.007, 3-[(E)-2-(4-{[(3R)-1,1-dioxidotetrahydro-3-thienyl]amino}-6-pyrrolidin-1-ylpyrimidin-2-yl)vinyl]-N,N-dimethylquinoxalin-2-amine] displayed an IC50 of 0.09 nM.
Molecule `CO[C@H]1CC[C@H](Nc2cc(N3CCCC3)nc(CCc3nc4cc(C(F)(F)F)ccc4nc3C)n2)CC1` [Example 4.003, N-(trans-4-methoxycyclohexyl)-2-{2-[3-methyl-7-(trifluoromethyl)quinoxalin-2-yl]ethyl}-6-pyrrolidin-1-ylpyrimidin-4-amine] gave an IC50 of 0.031 nM.
In turn, `CN(C)c1nc2ccccc2nc1/C=C/c1nc(NC2CCOCC2)cc(N2CCCC2)n1` [Example 1.001, N,N-dimethyl-3-{(E)-2-[4-pyrrolidin-1-yl-6-(tetrahydro-2H-pyran-4-ylamino)pyrimidin-2-yl]vinyl}quinoxalin-2-amine dihydrochloride] gave an IC50 of 0.1 nM. This IC50 lies about 3.2-fold higher than the previous one.
Consider `CN(c1cc(N2CCCC2)nc(/C=C/c2nc3ccccc3nc2N(C)C2CC2)n1)C1CCOCC1` [Example 1.101, N-cyclopropyl-N-methyl-3-((E)-2-{4-[methyl(tetrahydro-2H-pyran-4-yl)amino]-6-pyrrolidin-1-ylpyrimidin-2-yl}vinyl)quinoxalin-2-amine], for which the IC50 was determined as 0.46 nM.
For the molecule `Cc1nc2ccccc2nc1/C=C/c1nc(N[C@H]2CC[C@H](CO)CC2)cc(N2CCCC2)n1` [Example 1.024, [trans-4-({2-[(E)-2-(3-methylquinoxalin-2-yl)vinyl]-6-pyrrolidin-1-ylpyrimidin-4-yl}amino)cyclohexyl]methanol], the IC50 was 0.039 nM.
In the case of `CO[C@H]1CC[C@H](Nc2cc(N3CCCC3)nc(/C=C/c3nc4ccc(F)cc4nc3C)n2)CC1` [Example 1.048, 2-[(E)-2-(6-fluoro-3-methylquinoxalin-2-yl)vinyl]-N-(trans-4-methoxycyclohexyl)-6-pyrrolidin-1-ylpyrimidin-4-amine dihydrochloride], the IC50 amounted to 0.04 nM.
In turn, `Cc1nc2ccccc2nc1OCc1nc(N2CCCC2)cc(N(C)C2CCOCC2)n1` [Example 5.002, N-methyl-2-{[(3-methylquinoxalin-2-yl)oxy]methyl}-6-pyrrolidin-1-yl-N-(tetrahydro-2H-pyran-4-yl)pyrimidin-4-amine hydrochloride] gave an IC50 of 0.61 nM.
Regarding `Cc1nc2ccccc2nc1OCc1cc(NC2CCOCC2)nc(N2CCCC2)n1` [Example 6.001, 6-[(3-methylquinoxalin-2-yl)oxy]methyl-2-pyrrolidin-1-yl-N-(tetrahydro-2H-pyran-4-yl)pyrimidin-4-amine hydrochloride], the IC50 was determined as 0.22 nM. Against the preceding molecule, the IC50 is about 2.8-fold lower.
In turn, `Cc1nc2ccc(C(F)(F)F)cc2nc1/C=C/c1nc(N[C@@H]2CCS(=O)(=O)C2)cc(N2CCCC2)n1` [Example 1.074, N-[(3R)-1,1-dioxidotetrahydro-3-thienyl]-2-{(E)-2-[3-methyl-7-(trifluoromethyl)quinoxalin-2-yl]vinyl}-6-pyrrolidin-1-ylpyrimidin-4-amine] registered a 50% inhibitory concentration (IC50) of 0.0033 nM.
In the case of `Cc1cc2ccccc2nc1/C=C/c1nc(N[C@@H]2CCS(=O)(=O)C2)cc(N2CCCC2)n1` [Example 1.093, N-[(3R)-1,1-dioxidotetrahydro-3-thienyl]-2-[(E)-2-(3-methylquinolin-2-yl)vinyl]-6-pyrrolidin-1-ylpyrimidin-4-amine], half-maximal inhibition (IC50) required 0.3 nM.
The result for `Oc1nc2ccccc2nc1/C=C/c1nc(NC2CCOCC2)cc(N2CCCC2)n1` [Example 1.094, 3-{(E)-2-[4-pyrrolidin-1-yl-6-(tetrahydro-2H-pyran-4-ylamino)pyrimidin-2-yl]vinyl}quinoxalin-2-ol hydrochloride] reads 0.17 nM.
`CN(C)c1nc2ccccc2nc1/C=C/c1nc(N2CCCC2)cc(N(C2CCOCC2)C2CC2)n1` [Example 1.099, 3-((E)-2-{4-[cyclopropyl(tetrahydro-2H-pyran-4-yl)amino]-6-pyrrolidin-1-ylpyrimidin-2-yl}vinyl)-N,N-dimethylquinoxalin-2-amine] displayed an IC50 of 0.1 nM. Compared with the last molecule, the IC50 is about 1.7-fold lower.
The result for `CN(C)c1nc2ccccc2nc1/C=C/c1nc(N2CCCC2)cc(N2CCOCC2)n1` [Example 1.095, N,N-dimethyl-3-[(E)-2-(4-morpholin-4-yl-6-pyrrolidin-1-ylpyrimidin-2-yl)vinyl]quinoxalin-2-amine] reads 0.79 nM.
In the case of `COc1ccc2nc(C)c(/C=C/c3nc(NC4CCOCC4)cc(N4CCCC4)n3)nc2c1` [Example 1.078, 2[(E)-2-(7-methoxy-3-methylquinoxalin-2-yl)vinyl]-6-pyrrolidin-1-yl-N-(tetrahydro-2H-pyran-4-yl)pyrimidin-4-amine dihydrochloride], the IC50 was found to be 0.047 nM. Compared with the last molecule, the IC50 is about 17-fold lower.

For the origin of these results see patent US20110160206A1, “TRI-SUBSTITUTED PYRIMIDINE COMPOUNDS AND THEIR USE AS PDE10 INHIBITORS” (priority 2009, published 2011).
